{
  "source": "patent US9234018B2",
  "about": "“Compositions and methods for the treatment of VprBP-related cancers” (University of Southern California, priority 2013, dated 2016)",
  "key": {"DYRK1": {"target": "DYRK1 (Homo sapiens, UniProt Q13627)", "assay": "Kinase selectivity panel", "type": "biochemical"}, "[1]": {"assay": "B32B3 stability assessment in plasma", "type": "in vitro ADME", "details": "mouse plasma", "procedure": "To assess the metabolic stability of B32B3 in mouse, dog, monkey, and human plasma, the compound was spiked into blank plasma to a concentration of 10 μM. At 0, 15, 30, 60, 90, and 120 min time points, a 30 μl aliquot was collected and mixed with 270 μl acetonitrile solution for protein precipitation. After centrifugation, the supernatant was analyzed by LC-MS/MS. In vitro half-life of B32B3 in plasma was calculated using the slope (k) of the log-linear regression from the concentration remaining parent compound versus time. T1/2=−ln 2/k Mouse Pharmacokinetics of B32B3"}, "CDK9": {"target": "CDK9 (Homo sapiens, UniProt P50750)", "assay": "Kinase selectivity panel", "type": "biochemical"}, "VprBP": {"target": "T1, VprBP (Homo sapiens, UniProt Q9Y4B6)", "T1 construct": "His (N); made in house; host or cells: Sf9 insect cells (baculovirus)", "T1 sequence (Q9Y4B6 whole entry)": "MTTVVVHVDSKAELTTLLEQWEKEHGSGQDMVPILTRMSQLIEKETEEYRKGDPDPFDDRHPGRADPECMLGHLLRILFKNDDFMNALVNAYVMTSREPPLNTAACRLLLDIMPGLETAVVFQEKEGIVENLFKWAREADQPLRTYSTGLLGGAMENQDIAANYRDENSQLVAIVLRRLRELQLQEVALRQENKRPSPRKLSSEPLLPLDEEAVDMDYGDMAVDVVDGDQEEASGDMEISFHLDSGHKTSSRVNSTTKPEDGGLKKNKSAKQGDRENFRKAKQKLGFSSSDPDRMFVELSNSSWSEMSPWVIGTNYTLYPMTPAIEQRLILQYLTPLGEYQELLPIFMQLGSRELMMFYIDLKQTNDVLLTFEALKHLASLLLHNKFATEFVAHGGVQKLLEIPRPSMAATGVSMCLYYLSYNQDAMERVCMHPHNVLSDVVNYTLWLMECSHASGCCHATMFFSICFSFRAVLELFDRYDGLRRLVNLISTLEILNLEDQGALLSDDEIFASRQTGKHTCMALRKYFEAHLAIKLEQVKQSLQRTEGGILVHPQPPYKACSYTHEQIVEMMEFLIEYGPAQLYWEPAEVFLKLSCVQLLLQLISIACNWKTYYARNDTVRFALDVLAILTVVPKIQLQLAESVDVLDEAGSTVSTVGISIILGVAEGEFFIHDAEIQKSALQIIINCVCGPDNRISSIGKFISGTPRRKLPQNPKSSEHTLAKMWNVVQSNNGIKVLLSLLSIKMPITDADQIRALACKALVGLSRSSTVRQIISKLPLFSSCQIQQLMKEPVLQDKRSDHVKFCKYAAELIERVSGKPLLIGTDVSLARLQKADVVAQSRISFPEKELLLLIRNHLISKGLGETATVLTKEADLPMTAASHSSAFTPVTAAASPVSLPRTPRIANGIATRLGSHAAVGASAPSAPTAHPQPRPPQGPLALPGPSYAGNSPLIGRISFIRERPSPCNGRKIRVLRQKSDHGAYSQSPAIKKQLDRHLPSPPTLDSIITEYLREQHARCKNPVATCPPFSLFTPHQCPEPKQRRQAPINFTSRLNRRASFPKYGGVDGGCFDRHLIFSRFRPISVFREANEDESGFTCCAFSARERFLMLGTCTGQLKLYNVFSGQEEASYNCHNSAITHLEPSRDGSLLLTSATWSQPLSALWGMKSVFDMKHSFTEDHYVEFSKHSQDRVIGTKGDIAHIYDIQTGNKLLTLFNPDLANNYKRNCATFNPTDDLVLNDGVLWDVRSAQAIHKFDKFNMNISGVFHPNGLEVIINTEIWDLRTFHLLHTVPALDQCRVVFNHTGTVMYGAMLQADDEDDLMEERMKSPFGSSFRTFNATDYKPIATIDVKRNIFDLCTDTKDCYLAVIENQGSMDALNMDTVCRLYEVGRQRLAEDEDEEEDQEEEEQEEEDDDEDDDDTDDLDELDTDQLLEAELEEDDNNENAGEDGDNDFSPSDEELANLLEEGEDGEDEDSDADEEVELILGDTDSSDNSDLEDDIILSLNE", "assay": "In vitro kinase assay, VprBP (recombinant VprBP and H2A; kinase panel)", "type": "biochemical", "parameters": "Inhibition of VprBP and H2AT120p in in vitro kinase assay (library screen): dose or concentration left out as unconfirmed", "procedure": "Recombinant mononucleosomes and nucleosome arrays were reconstituted using recombinant histone octamers as recently described (Jaskelioff, M. et al. (2000) Mol. Cell. Biol. 20:3058-3068; Robinson, P. J. et al. (2008) J. Mol. Biol. 381:816-825). For kinase assays, recombinant VprBP was incubated with free histones ([…]) or reconstituted nucleosomes ([…]) in kinase buffer (50 mM Tris-HCl [pH 7.5], 20 mM EGTA, 10 mM MgCl2, 1 mM DTT, and 1 mM b-glycerophosphate) containing 10 mCi of [g-32P] ATP and 4 mM ATP for 30 min at 30_C. Proteins from each reaction were separated by SDS-PAGE, Coomassie blue stained, dried, and visualized by autoradiography. To create VprBP inhibitors, a collection of 5,000 compounds was screened in the same kinase assays at a final concentration […]. In vitro transcription assays were as described (Kim, K. et al. (2012) Mol. Cell. Biol. 32:783-796), except that G5ML-601 nucleosome arrays (100 ng) and Gal4-VP16 (15 ng) were used for the reactions. Recombinant VprBP (25 or 50 ng) and ATP (10 mM) were added before p300 (20 ng) and AcCoA (10 mM)."}, "VRK2": {"target": "VRK2 (Homo sapiens, UniProt Q86Y07)", "assay": "Kinase selectivity panel", "type": "biochemical"}, "AKT1": {"target": "AKT1 (Homo sapiens, UniProt P31749)", "assay": "Kinase selectivity panel", "type": "biochemical"}, "ATM": {"target": "ATM (Homo sapiens, UniProt Q13315)", "sequence (Q13315 whole entry)": "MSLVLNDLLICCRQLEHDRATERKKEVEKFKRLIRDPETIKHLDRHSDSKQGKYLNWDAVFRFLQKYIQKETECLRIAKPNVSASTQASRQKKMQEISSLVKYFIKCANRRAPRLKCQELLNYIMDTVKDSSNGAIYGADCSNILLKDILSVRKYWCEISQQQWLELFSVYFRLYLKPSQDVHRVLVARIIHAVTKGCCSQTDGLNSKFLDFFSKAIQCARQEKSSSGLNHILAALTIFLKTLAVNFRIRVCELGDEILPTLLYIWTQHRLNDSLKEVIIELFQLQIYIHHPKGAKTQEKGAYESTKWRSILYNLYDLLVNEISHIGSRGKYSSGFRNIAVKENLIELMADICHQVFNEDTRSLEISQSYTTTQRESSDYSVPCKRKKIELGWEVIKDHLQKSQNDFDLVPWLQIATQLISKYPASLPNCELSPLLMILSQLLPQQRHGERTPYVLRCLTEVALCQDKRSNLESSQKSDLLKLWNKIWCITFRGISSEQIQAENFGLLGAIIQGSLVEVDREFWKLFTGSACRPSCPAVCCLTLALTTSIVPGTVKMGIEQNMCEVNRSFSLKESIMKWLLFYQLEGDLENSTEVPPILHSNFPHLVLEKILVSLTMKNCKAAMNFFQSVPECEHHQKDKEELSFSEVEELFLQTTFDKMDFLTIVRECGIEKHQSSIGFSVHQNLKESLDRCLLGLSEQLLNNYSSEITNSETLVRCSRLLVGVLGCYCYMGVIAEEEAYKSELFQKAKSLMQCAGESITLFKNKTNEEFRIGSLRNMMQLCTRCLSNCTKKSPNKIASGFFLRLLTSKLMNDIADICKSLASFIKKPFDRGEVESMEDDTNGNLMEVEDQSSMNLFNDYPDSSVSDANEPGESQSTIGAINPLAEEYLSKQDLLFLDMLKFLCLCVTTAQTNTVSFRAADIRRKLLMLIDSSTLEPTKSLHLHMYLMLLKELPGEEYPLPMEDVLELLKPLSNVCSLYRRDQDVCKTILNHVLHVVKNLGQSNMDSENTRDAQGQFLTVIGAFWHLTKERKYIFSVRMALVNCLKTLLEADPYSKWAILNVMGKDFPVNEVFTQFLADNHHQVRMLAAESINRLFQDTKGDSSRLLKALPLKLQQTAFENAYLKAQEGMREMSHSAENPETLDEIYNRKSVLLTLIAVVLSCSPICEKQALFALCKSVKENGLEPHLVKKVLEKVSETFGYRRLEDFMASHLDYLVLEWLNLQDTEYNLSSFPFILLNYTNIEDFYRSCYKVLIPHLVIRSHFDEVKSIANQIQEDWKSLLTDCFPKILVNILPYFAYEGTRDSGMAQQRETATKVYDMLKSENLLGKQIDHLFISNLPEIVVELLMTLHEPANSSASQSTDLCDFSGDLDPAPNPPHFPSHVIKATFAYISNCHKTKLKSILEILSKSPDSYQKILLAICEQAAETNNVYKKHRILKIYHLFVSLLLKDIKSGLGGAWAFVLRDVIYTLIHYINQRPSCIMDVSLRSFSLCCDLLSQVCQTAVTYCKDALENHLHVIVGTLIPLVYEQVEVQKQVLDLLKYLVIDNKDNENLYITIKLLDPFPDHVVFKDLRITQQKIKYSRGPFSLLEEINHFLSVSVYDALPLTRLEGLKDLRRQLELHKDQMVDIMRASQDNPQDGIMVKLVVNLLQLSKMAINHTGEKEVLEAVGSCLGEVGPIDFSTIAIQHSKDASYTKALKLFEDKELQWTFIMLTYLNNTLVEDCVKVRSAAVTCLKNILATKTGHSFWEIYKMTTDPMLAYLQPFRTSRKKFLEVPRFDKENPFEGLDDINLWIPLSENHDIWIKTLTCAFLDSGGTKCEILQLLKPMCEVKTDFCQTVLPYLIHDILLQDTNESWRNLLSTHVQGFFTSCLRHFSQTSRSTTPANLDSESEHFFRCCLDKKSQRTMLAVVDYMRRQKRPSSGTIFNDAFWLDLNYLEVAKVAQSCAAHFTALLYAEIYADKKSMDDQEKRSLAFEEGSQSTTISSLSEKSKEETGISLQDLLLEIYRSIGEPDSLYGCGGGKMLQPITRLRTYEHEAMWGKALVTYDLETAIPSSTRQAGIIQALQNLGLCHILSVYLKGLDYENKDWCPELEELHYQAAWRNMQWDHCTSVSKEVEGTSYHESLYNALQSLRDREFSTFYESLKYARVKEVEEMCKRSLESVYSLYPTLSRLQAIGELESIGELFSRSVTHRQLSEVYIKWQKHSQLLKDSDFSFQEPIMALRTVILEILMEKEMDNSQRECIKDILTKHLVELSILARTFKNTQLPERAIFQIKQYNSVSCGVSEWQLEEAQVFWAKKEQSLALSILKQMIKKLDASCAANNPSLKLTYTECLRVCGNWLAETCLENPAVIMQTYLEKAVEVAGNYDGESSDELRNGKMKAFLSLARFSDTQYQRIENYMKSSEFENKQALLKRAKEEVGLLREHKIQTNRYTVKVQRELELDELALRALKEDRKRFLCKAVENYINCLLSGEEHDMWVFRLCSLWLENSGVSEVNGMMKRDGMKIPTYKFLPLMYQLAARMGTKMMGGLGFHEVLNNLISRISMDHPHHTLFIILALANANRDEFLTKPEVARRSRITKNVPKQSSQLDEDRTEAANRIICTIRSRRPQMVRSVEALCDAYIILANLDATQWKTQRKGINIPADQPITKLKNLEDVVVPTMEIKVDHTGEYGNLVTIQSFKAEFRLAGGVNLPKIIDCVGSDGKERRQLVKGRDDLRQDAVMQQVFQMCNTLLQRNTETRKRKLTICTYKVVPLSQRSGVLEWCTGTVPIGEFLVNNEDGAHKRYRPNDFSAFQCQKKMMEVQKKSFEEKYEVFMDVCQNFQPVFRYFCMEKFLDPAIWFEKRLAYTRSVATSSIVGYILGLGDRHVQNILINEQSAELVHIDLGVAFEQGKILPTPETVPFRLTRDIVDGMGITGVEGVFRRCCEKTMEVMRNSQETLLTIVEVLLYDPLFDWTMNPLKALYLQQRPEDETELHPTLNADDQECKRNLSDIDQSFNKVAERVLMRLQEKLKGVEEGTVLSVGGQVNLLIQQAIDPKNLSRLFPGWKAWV", "assay": "Kinase selectivity panel", "type": "biochemical"}, "DU145 cells": {"test_system": "DU145 cells", "assay": "Cell proliferation (MTT) and soft agar colony formation", "type": "cell-based, human", "details": "MTT 72 h and soft agar colonies", "procedure": "Cell proliferation was assessed by the 3-(4,5-dimethylthiazol-2-yl)-2,5-diphenyltetrazolium bromide (MTT) assay as previously described (Kim, K. et al. (2012) Mol. Cell Biol. 32:783-796). To evaluate IC50 of compound B32B3 and B20H6, DU145 cells were treated with various concentrations (0.001, 0.005, 0.01, 0.05, 0.1, 1, 5, 10, and 20 μM) of compounds for 72 h and viability was measured by MTT assays. For soft agar colony formation assays, DU145 cells were treated with B32B3 (0.5, 1, and 3 μM). Cells were suspended in semisolid medium (DMEM 10% FBS plus 0.3% ultra pure noble agar) at concentrations of 2×10^5 cells/ml, added over a layer of 0.6% agar in RPMI on 35 mm plate and incubated for an additional 21 days. The colonies in each well were stained with 0.005% crystal violet in 20% ethanol, counted and photographed. All assays were run in triplicate, and results presented are the average of three individual experiments."}, "CHK1": {"target": "CHK1 (Homo sapiens, UniProt O14757)", "assay": "Kinase selectivity panel", "type": "biochemical"}, "DU145 tumor xenografts": {"test_system": "DU145 tumor xenografts", "assay": "DU145 tumor xenografts in nude mice", "type": "in vivo", "procedure": "All animal experiments were performed according to protocols approved by the Institutional Animal Care and Use Committee. Tumor xenografts were established by subcutaneous injection of 1 3 107 DU145 cells into 8-weekold female nude mice (n=8). At day 5 after injection, the mice bearing DU145 tumor xenografts were treated with twice-weekly i.p. injections of either DMSO or B32B3 at a dose of 5 mg/kg throughout the duration of the experiment. Tumor dimension was measured by calipers twice a week, and tumor mass was calculated as described (Heo, K. et al. (2012) Oncogene 32:2510-2520). The mice were killed by asphyxiation with CO2, and tumors were excised and weighed 25 day after the cell injection. To analyze the H2AT120p, formalin-fixed and paraffin-embedded sections ([…]) from DU145 tumor xenografts were subject to immunohistochemistry. Animal studies were conducted under approved institutional protocols."}, "HCK": {"target": "HCK (Homo sapiens, UniProt P08631)", "assay": "Kinase selectivity panel", "type": "biochemical"}, "ATR": {"target": "ATR (Homo sapiens, UniProt Q13535)", "assay": "Kinase selectivity panel", "type": "biochemical"}, "CHK2": {"target": "CHK2 (Homo sapiens, UniProt O96017)", "assay": "Kinase selectivity panel", "type": "biochemical"}, "CSK1E": {"target": "CSK1E (Homo sapiens, UniProt P49674)", "sequence (P49674 whole entry)": "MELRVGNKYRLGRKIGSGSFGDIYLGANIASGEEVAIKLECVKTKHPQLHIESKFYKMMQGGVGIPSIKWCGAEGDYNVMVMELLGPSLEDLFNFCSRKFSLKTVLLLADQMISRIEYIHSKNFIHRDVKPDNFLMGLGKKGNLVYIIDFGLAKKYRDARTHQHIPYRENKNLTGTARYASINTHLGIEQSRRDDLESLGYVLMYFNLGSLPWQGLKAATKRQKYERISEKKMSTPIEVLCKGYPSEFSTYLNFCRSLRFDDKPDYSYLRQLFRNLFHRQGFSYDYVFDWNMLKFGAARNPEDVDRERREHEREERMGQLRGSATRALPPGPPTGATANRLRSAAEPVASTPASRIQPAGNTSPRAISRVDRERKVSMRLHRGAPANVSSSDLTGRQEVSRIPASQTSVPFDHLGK", "assay": "Kinase selectivity panel", "type": "biochemical"}},
  "data": [
    {"smiles": "c1ccc2c(CNNc3ncnc4sc5c(c34)CCCC5)c[nH]c2c1", "note": "[B32B3]", "values": [
      {"measurement": "IC50", "setting": "DYRK1", "result": "> 10", "unit": "µM"},
      {"measurement": "half-life at 10 μM", "setting": "[1]", "result": "~7", "unit": "h"},
      {"measurement": "IC50", "setting": "CDK9", "result": "> 10", "unit": "µM"},
      {"measurement": "Selectivity for VprBP over 33 other kinases", "setting": "VprBP; panel of 33 human kinases", "result": "greater than 100 fold"},
      {"measurement": "IC50", "setting": "VprBP; panel of 33 human kinases, read-out: IC50 for VprBP as stated in text", "result": 0.6, "unit": "µM"},
      {"measurement": "Inhibition of VprBP and H2AT120p in in vitro kinase assay (library screen)", "setting": "VprBP; recombinant H2A and VprBP, western blotting with H2AT120p antibody", "result": "inhibited VprBP and decreased H2AT120p"},
      {"measurement": "IC50", "setting": "VRK2", "result": "> 10", "unit": "µM"},
      {"measurement": "IC50", "setting": "AKT1", "result": "> 10", "unit": "µM"},
      {"measurement": "IC50", "setting": "ATM", "result": "> 10", "unit": "µM"},
      {"measurement": "Effect on cell proliferation / cell growth", "setting": "DU145 cells", "result": "inhibition of cell proliferation"},
      {"measurement": "IC50", "setting": "CHK1", "result": "> 10", "unit": "µM"},
      {"measurement": "Tumor growth inhibition", "setting": "DU145 tumor xenografts; 5 mg/kg i.p. twice a week over 3 weeks, calculated the day after the last treatment", "result": "70%-75%"},
      {"measurement": "Body weight loss during treatment", "setting": "DU145 tumor xenografts; 5 mg/kg i.p. twice weekly", "result": "did not cause any significant weight loss"},
      {"measurement": "Tolerability in mice", "setting": "DU145 tumor xenografts; 5 mg/kg i.p. twice weekly", "result": "well tolerated"},
      {"measurement": "Levels of H2AT120p in xenograft tumors (immunohistochemistry)", "setting": "DU145 tumor xenografts; compared to DMSO-treated controls", "result": "greatly decreased"},
      {"measurement": "IC50", "setting": "HCK", "result": "> 10", "unit": "µM"},
      {"measurement": "IC50", "setting": "ATR", "result": "> 10", "unit": "µM"},
      {"measurement": "IC50", "setting": "CHK2", "result": "> 10", "unit": "µM"},
      {"measurement": "IC50", "setting": "CSK1E", "result": "> 10", "unit": "µM"}
    ]}
  ]
}
